Reference: patent US20220000734A1, “COMPOSITION AND METHOD OF STRENGTHENING SKIN BARRIER” (AMOREPACIFIC CORPORATION, priority 2018, published 2022)

What was measured:
Assay type in all cases: cell-based, human
KRT1 (keratin 1) = assay: KRT1 gene expression in UVB-irradiated NHEK (Taqman real-time PCR); settings: UVB 25 mJ/cm^2, 10 nM compound, fourth day of culture, FIG. 1
Protocol: (§1) Normal human epidermal keratinocytes (NHEK) were cultured in a 6-well plate incubator. 24 hours later, the normal human epidermal keratinocytes (NHEK) were cultured by replacing it with phosphate-buffered saline (PBS) and irradiating it with UVB (25 mJ/cm^2) and adding 10 nM of a compound represented by Chemical Formula 1-1 (Cayman Chemical) to the NHEK culture medium. On the fourth day of the culture, cells were harvested to separate RNA and synthesize cDNA through RT-PCR (a reverse transcriptional polymerase chain reaction), and the synthesized cDNA was used to perform Taqman real-time PCR and measure gene expression levels of a keratinocyte differentiation markers, KRT1 and KRT10, and a desmosome constituent factor, DSC1, and the results are shown in FIGS. 1 to 3.

DSC1 = DSC1 gene expression in UVB-irradiated NHEK (Taqman real-time PCR); settings: UVB 25 mJ/cm^2, 10 nM compound, fourth day of culture, FIG. 3
Protocol: as §1

KRT10 (keratin 10) = assay: KRT10 gene expression in UVB-irradiated NHEK (Taqman real-time PCR); settings: UVB 25 mJ/cm^2, 10 nM compound, fourth day of culture, FIG. 2
Protocol: as §1

CC/C=C/C/C=C\C[C@H](O)\C=C/C=C/C=C/[C@H](O)C/C=C\CCC(=O)O [Chemical Formula 1-1]
increased again: gene expression level of KRT1 (keratin 1) (KRT1 (keratin 1)) | gene expression level of DSC1 (DSC1) | gene expression level of KRT10 (keratin 10) (KRT10 (keratin 10))
